Test results from BigSolDB 2.1.

COc1ccc(-c2cc(-c3ccc(O)c(OC)c3)c(C#N)c(=O)[nH]2)cc1
solubility (mole fraction)
Conditions	in 1,4-dioxane	in chloroform	in ethanol	in ethyl acetate	in methanol	in n-butanol	in n-propanol
298.15 K	0.00145	0.00111	0.00069	0.00107	0.000472	0.000297	0.000733
303.15 K	0.00154	0.00116	0.000724	0.00115	0.000502	0.000344	0.000782
308.15 K	0.00162	0.0012	0.000759	0.00123	0.000532	0.000389	0.000827
313.15 K	0.00171	0.00124	0.000802	0.00129	0.000562	0.000443	0.000886
318.15 K	0.0018	0.00129	0.000846	0.00136	0.000592	0.000497	0.000934
323.15 K	0.00189	0.00134	0.000899	0.00145	0.000625	0.000565	0.00098
328.15 K	0.00199	0.00138	0.000953	0.00154	0.000659	0.000633	0.00103

COc1cc(-c2cc(-c3ccc(F)cc3)[nH]c(=O)c2C#N)ccc1O
solubility (mole fraction)
Conditions	in 1,4-dioxane	in chloroform	in ethanol	in ethyl acetate	in methanol	in n-butanol	in n-propanol
298.15 K	0.00156	0.00134	0.000762	0.00133	0.000618	0.000531	0.000864
303.15 K	0.00164	0.00139	0.000809	0.00142	0.000638	0.000589	0.000907
308.15 K	0.00173	0.00145	0.000848	0.0015	0.000658	0.000648	0.00095
313.15 K	0.00183	0.00151	0.000897	0.0016	0.000688	0.000707	0.00101
318.15 K	0.00193	0.00158	0.000946	0.00169	0.000718	0.000767	0.00108
323.15 K	0.00202	0.00167	0.001	0.00178	0.000754	0.000835	0.00113
328.15 K	0.00211	0.00176	0.00106	0.00187	0.00079	0.000903	0.00119

COc1cc(-c2cc(-c3ccc(Cl)cc3)[nH]c(=O)c2C#N)ccc1O
solubility (mole fraction)
Conditions	in 1,4-dioxane	in chloroform	in ethanol	in ethyl acetate	in methanol	in n-butanol	in n-propanol
298.15 K	0.00149	0.00118	0.00073	0.00123	0.000577	0.0004	0.000791
303.15 K	0.00156	0.00123	0.00077	0.00132	0.000603	0.000445	0.000836
308.15 K	0.00163	0.00129	0.00081	0.0014	0.000629	0.000489	0.000882
313.15 K	0.00172	0.00135	0.000861	0.0015	0.000653	0.000549	0.000929
318.15 K	0.00181	0.00141	0.000905	0.00159	0.000677	0.000609	0.000976
323.15 K	0.00189	0.00149	0.000948	0.00168	0.000705	0.000672	0.00102
328.15 K	0.00197	0.00157	0.001	0.00177	0.000732	0.000735	0.00107

COc1cc(-c2cc(-c3ccc(Br)cc3)[nH]c(=O)c2C#N)ccc1O
solubility (mole fraction)
Conditions	in 1,4-dioxane	in chloroform	in ethanol	in ethyl acetate	in methanol	in n-butanol	in n-propanol
298.15 K	0.0014	0.00114	0.00071	0.00109	0.000523	0.000338	0.000757
303.15 K	0.00148	0.00119	0.00075	0.00116	0.000555	0.000384	0.0008
308.15 K	0.00155	0.00123	0.000789	0.00124	0.000587	0.00043	0.000843
313.15 K	0.00163	0.00128	0.000832	0.00132	0.000615	0.000484	0.0009
318.15 K	0.0017	0.00133	0.000876	0.0014	0.000642	0.000538	0.000951
323.15 K	0.00177	0.00137	0.000919	0.00148	0.000682	0.000614	0.000997
328.15 K	0.00184	0.00142	0.000972	0.00156	0.000722	0.000691	0.00105

COc1cc(-c2cc(-c3ccc(O)cc3)[nH]c(=O)c2C#N)ccc1O
solubility (mole fraction)
Conditions	in 1,4-dioxane	in chloroform	in ethanol	in ethyl acetate	in methanol	in n-butanol	in n-propanol
298.15 K	0.00153	0.00123	0.000745	0.00106	0.000574	0.000511	0.000847
303.15 K	0.00161	0.0013	0.000786	0.00111	0.000605	0.000566	0.000882
308.15 K	0.00169	0.00137	0.000828	0.00117	0.000635	0.00062	0.000927
313.15 K	0.00178	0.00144	0.000876	0.00122	0.000664	0.000674	0.00098
318.15 K	0.00187	0.00151	0.000922	0.00127	0.000693	0.000728	0.00104
323.15 K	0.00195	0.00157	0.000976	0.00134	0.000724	0.000794	0.00111
328.15 K	0.00203	0.00164	0.00103	0.0014	0.000754	0.000861	0.00116
